Consider four molecules from ChEMBL document CHEMBL4251600, “Bioactive products from singlet oxygen photooxygenation of cannabinoids” (Eur J Med Chem, 2018).

One experiment relates to LLC-PK1. The experiment can be described thus: Cytotoxicity against pig LLC-PK1 cells assessed as cell growth inhibition incubated for 48 hrs by neutral red dye based assay. Details: species or system Sus scrofa.
For experiment [1], the system named is Staphylococcus aureus. The experiment can be described thus: Antimicrobial activity against methicillin-resistant Staphylococcus aureus by modified CLSI based method. Format: functional, organism-based.
Experiment [2] has as its system Staphylococcus aureus. The experiment can be described thus: Antimicrobial activity against Staphylococcus aureus by modified CLSI based method. In kind it is functional, organism-based.
In the next experiment the test system is Cryptococcus neoformans. The experiment can be described thus: Antifungal activity against Cryptococcus neoformans by alamar blue assay. Format: functional, organism-based. In general terms: The colour change of resazurin is a common sign of viable cells or microbes.
A further experiment concerns Pichia kudriavzevii. The experiment can be described thus: Antifungal activity against Candida krusei by modified CLSI based method. Format: functional, organism-based.
For the next experiment, the system named is Leishmania donovani. The experiment can be described thus: Antileishmanial activity against Leishmania donovani promastigotes incubated for 48 hrs by alamar blue assay. In kind it is functional, organism-based.
The subject of experiment [3] is SK-MEL. The experiment in a line: Anticancer activity against human SK-MEL cells assessed as cell growth inhibition up to 10 ug/ml incubated for 48 hrs by neutral red dye based assay. In kind it is functional.
Experiment [4] has as its system SK-MEL. The experiment can be described thus: Anticancer activity against human SK-MEL cells assessed as cell growth inhibition incubated for 48 hrs by neutral red dye based assay. Format: functional.
Experiment [5] deals with BT-549. The experiment in a line: Anticancer activity against human BT549 cells assessed as cell growth inhibition incubated for 48 hrs by neutral red dye based assay. As to conditions: BT-549, 48 h. In kind it is functional.
Another experiment relates to Nakaseomyces glabratus. The experiment can be described thus: Antifungal activity against Candida glabrata by modified CLSI based method. Format: functional, organism-based.
In experiment [6] the test system is KB. The experiment in a line: Anticancer activity against human KB cells assessed as cell growth inhibition up to 10 ug/ml incubated for 48 hrs by neutral red dye based assay. In kind it is functional.
Experiment [7] concerns SK-OV-3. The experiment can be described thus: Anticancer activity against human SKOV3 cells assessed as cell growth inhibition up to 10 ug/ml incubated for 48 hrs by neutral red dye based assay. In kind it is functional.
Experiment [8] has as its system Plasmodium falciparum. The experiment can be described thus: Antiplasmodial activity against chloroquine-sensitive Plasmodium falciparum D6 infected in red blood cells incubated for 72 hrs by parasite LDH release based colorimetric assay. In kind it is functional, organism-based. As to conditions: D6, 72 h.
Experiment [9] has as its system Plasmodium falciparum. The experiment in a line: Antiplasmodial activity against chloroquine-resistant Plasmodium falciparum W2 infected in red blood cells incubated for 72 hrs by parasite LDH release based colorimetric assay. The settings on record: W2, 72 h. In kind it is functional, organism-based.
Experiment [10] concerns BT-549. The experiment in a line: Anticancer activity against human BT549 cells assessed as cell growth inhibition up to 10 ug/ml incubated for 48 hrs by neutral red dye based assay. In kind it is functional.
A further experiment has as its target Cannabinoid receptor 1 (Homo sapiens, UniProt P21554). The experiment can be described thus: Displacement of [3H]CP-55,940 from recombinant human full length CB1 receptor expressed in HEK293 cell membranes after 90 mins by topcount method. A general note: Displacement assays read how much labelled ligand stays bound in the presence of the test substance.
For a further experiment, the target named is Cannabinoid receptor 2 (Homo sapiens, UniProt P34972). The experiment in a line: Displacement of [3H]CP-55,940 from recombinant human full length CB2 receptor expressed in HEK293 cell membranes after 90 mins by topcount method.
The subject of experiment [11] is KB. The experiment in a line: Anticancer activity against human KB cells assessed as cell growth inhibition incubated for 48 hrs by neutral red dye based assay. Format: functional.
Experiment [12] relates to SK-OV-3. The experiment in a line: Anticancer activity against human SKOV3 cells assessed as cell growth inhibition incubated for 48 hrs by neutral red dye based assay. As to conditions: SK-OV-3, 48 h. Format: functional.
For a further experiment, the system named is Vero. The experiment in a line: Cytotoxicity against African green monkey Vero cells assessed as cell growth inhibition incubated for 48 hrs by neutral red dye based assay. As to conditions: Chlorocebus sabaeus.
The mark [13] stands for this setting: Sus scrofa, LLC-PK1, 48 h, read-out: IC50.
[14] abbreviates: Staphylococcus aureus, read-out: IC50.
[15] abbreviates: Cryptococcus neoformans, read-out: IC50.
Where [16] appears, read: Cryptococcus neoformans, read-out: MIC.
[17] abbreviates: Staphylococcus aureus, read-out: MIC.
The mark [18] stands for this setting: Leishmania donovani, 48 h, read-out: IC50.
Setting [19] is: Leishmania donovani, 48 h, read-out: IC90.

pIC50, pKi: −log10 of the molar value. ≈ marks a conversion by molar mass, not a printed value. Calls of active or inactive are those of the source. No cut-off for these calls is given here.

Sequence of Cannabinoid receptor 2 (P34972 whole entry): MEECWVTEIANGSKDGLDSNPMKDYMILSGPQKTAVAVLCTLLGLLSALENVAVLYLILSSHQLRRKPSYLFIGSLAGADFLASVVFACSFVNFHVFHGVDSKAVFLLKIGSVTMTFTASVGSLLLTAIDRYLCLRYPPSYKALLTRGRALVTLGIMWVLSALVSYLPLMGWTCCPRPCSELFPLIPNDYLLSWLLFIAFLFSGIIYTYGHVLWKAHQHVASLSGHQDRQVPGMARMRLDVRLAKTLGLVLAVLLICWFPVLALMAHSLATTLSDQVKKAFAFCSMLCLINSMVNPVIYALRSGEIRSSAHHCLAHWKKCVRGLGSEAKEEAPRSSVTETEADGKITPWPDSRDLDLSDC
Sequence of Cannabinoid receptor 1 (P21554 whole entry): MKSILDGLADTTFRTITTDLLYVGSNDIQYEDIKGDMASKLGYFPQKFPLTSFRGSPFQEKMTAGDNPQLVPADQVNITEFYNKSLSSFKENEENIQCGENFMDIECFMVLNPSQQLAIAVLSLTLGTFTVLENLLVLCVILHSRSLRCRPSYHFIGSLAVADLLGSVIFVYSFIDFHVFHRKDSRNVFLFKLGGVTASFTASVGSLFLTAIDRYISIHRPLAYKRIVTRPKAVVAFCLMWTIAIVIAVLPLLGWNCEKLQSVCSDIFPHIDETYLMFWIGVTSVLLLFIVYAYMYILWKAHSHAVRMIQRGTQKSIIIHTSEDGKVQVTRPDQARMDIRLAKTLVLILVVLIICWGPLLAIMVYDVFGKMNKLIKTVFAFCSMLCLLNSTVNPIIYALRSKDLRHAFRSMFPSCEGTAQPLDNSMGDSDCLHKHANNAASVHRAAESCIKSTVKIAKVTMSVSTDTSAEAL

For `C=C1C[C@H]2C3=C(OC(C)(C)[C@@H]2CC1OO)C(=O)C(CCCCC)=CC3=O` (stereo in doubt; 26), the IC50 (commonly the concentration needed to halve the response being measured) in the experiment on LLC-PK1 (setting [13]) came to 9.95 µg/mL (≈ 27.6 µM); in the experiment with Staphylococcus aureus [1] it was 15.3 µg/mL (≈ 42.4 µM); in the experiment on Staphylococcus aureus [2], 2.41 µg/mL (≈ 6.69 µM); in the experiment on Cryptococcus neoformans, 2.05 µg/mL (≈ 5.69 µM); with Pichia kudriavzevii, 20 µg/mL (≈ 55.5 µM); with Leishmania donovani, 3.1 µg/mL (≈ 8.6 µM). Further, the IC50 result with SK-MEL [3] is reported as “Not Active”. Moreover, the MIC against Staphylococcus aureus [2] and with Cryptococcus neoformans was 5 µg/mL (≈ 13.9 µM) in each case. Moreover, the IC90 (as a rule, the concentration at which the effect reaches the 90% level) in the experiment with Leishmania donovani stood at 8 µg/mL (≈ 22.2 µM).

With `CCCCCC1=CC(=O)C2=C(OC(C)(C)c3ccc(C)cc32)C1=O`, the IC50 with SK-MEL [4] is 7.6 µg/mL (≈ 23.4 µM); with BT-549 [5] it was 6.05 µg/mL (≈ 18.6 µM); with LLC-PK1 (setting [13]), 5.65 µg/mL (≈ 17.4 µM); with Staphylococcus aureus [1], “Not Active”; in the experiment on Staphylococcus aureus [2] (setting [14]) it was above 20 µg/mL; with Cryptococcus neoformans (setting [15]), 4.44 µg/mL (≈ 13.7 µM). Also, the IC50 result in the experiment on Pichia kudriavzevii, in the experiment on Nakaseomyces glabratus, in the experiment with KB [6] and with SK-OV-3 [7] was “Not Active” throughout. Also, the MIC entry in the experiment with Staphylococcus aureus [1], in the experiment on Staphylococcus aureus [2], in the experiment on Pichia kudriavzevii and with Nakaseomyces glabratus was “inactive” each time. In addition, in the experiment with Cryptococcus neoformans (setting [16]), the MIC (in general, the least concentration at which growth counts as inhibited) was determined as 20 µg/mL (≈ 61.6 µM).

On to `C=C1C[C@H]2C3=C(OC(C)(C)[C@@H]2CC1OO)C(=O)C(CCCCC)=CC3=O` (stereo in doubt; 25), for which the IC50 in the experiment on SK-MEL [4] was determined as 8.65 µg/mL (≈ 24 µM); in the experiment on LLC-PK1 (llc-pk1), 9.9 µg/mL (≈ 27.5 µM); with Staphylococcus aureus [1], 5.78 µg/mL (≈ 16 µM); with Staphylococcus aureus [2] it was 0.91 µg/mL (≈ 2.52 µM); in the experiment with Cryptococcus neoformans (setting [15]), 1.4 µg/mL (≈ 3.88 µM); with Pichia kudriavzevii (Pichia kudriavzevii, read-out: IC50), 17 µg/mL (≈ 47.2 µM). Moreover, the half-maximal inhibitory concentration (IC50) result is “Not Active” in the experiment with Nakaseomyces glabratus; 1 µg/mL (≈ 2.77 µM) in the experiment on Plasmodium falciparum [8]; 0.9 µg/mL (≈ 2.5 µM) in the experiment on Plasmodium falciparum [9]; 2.1 µg/mL (≈ 5.83 µM) in the experiment with Leishmania donovani (setting [18]); “Not Active” in the experiment with KB [6]; “Not Active” with BT-549 [10]. Further, the IC50 entry in the experiment on SK-OV-3 [7] is recorded as “Not Active”. The figures for the MIC in the experiment with Staphylococcus aureus [1] (Staphylococcus aureus), in the experiment on Staphylococcus aureus [2] (setting [17]) and in the experiment with Cryptococcus neoformans (setting [16]) were 10 µg/mL (≈ 27.7 µM), 2.5 µg/mL (≈ 6.94 µM) and 2.5 µg/mL (≈ 6.94 µM), respectively. In addition, in the experiment with Leishmania donovani (setting [19]), the IC90 worked out at 11 µg/mL (≈ 30.5 µM).

As to `CCCCCC1=CC(=O)C2=C(OC(C)(C)[C@@H]3CC[C@](C)(OCC)C=C23)C1=O`, the pIC50 (as a rule, −log10 of the IC50, conventionally taken in molar units) on Cannabinoid receptor 1 is 5.74; at Cannabinoid receptor 2 it was 5.39. Also, the pKi (in general, the negative decadic logarithm of the Ki, by convention in mol/L) on Cannabinoid receptor 1 is 6.04; on Cannabinoid receptor 2 it was 5.69. For the same molecule, the IC50 in the experiment with KB [11] came to 5.25 µg/mL (≈ 14.1 µM); in the experiment with BT-549 [5], 4.2 µg/mL (≈ 11.3 µM); with SK-OV-3 [12], 4.35 µg/mL (≈ 11.7 µM); in the experiment with Vero it was 4.1 µg/mL (≈ 11 µM); with LLC-PK1 (setting [13]) it was 2.25 µg/mL (≈ 6.04 µM); in the experiment on Staphylococcus aureus [1] (setting [14]) it was 1.36 µg/mL (≈ 3.65 µM). For the same molecule, the IC50 is 1.35 µg/mL (≈ 3.62 µM) in the experiment on Staphylococcus aureus [2] (setting [14]); 0.7 µg/mL (≈ 1.88 µM) with Cryptococcus neoformans (setting [15]); “Not Active” with Pichia kudriavzevii; “Not Active” in the experiment on Nakaseomyces glabratus; 0.16 µg/mL (≈ 0.43 µM) in the experiment with Plasmodium falciparum [8]; 0.2 µg/mL (≈ 0.537 µM) in the experiment with Plasmodium falciparum [9]. The IC50 in the experiment on Leishmania donovani (setting [18]) is 0.06 µg/mL (≈ 0.161 µM). Moreover, the MIC against Staphylococcus aureus [1] (Staphylococcus aureus), in the experiment on Staphylococcus aureus [2] (setting [17]) and in the experiment on Cryptococcus neoformans (setting [16]) was 2.5 µg/mL (≈ 6.71 µM) in each case. Also, the MIC result in the experiment on Pichia kudriavzevii and in the experiment on Nakaseomyces glabratus was “inactive” each time. Moreover, the IC90 in the experiment with Leishmania donovani (setting [19]) was 0.13 µg/mL (≈ 0.349 µM).
